Measurements taken from patent publication US11236106B2, “Cycloalkane-1,3-diamine derivative” (Daiichi Sankyo Company, Limited, priority 2018, dated 2022).
Counter-ions that a name gives are not always drawn. Like-named read-outs stand apart in the source and are kept apart here.

Target: T1, menin and MLL (menin, Flag tagged; biotinylated MLL1 peptide 1-46aa) (Homo sapiens, UniProt O00255)
T1 sequence (O00255 1-610): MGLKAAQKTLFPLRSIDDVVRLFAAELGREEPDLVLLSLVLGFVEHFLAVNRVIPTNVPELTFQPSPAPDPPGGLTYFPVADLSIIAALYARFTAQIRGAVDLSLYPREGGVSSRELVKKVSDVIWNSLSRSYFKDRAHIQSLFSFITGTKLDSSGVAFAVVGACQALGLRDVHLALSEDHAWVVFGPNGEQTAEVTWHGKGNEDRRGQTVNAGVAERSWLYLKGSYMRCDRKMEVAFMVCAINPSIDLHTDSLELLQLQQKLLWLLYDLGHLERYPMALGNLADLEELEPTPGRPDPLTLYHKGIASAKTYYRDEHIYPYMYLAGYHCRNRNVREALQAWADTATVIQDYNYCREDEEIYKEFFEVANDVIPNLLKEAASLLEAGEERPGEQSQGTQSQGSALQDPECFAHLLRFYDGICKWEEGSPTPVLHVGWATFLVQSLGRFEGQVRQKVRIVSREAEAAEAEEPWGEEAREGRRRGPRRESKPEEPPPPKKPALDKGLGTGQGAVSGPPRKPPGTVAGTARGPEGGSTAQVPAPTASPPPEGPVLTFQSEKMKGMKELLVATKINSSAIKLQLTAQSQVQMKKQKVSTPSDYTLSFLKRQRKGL
Experiment: biochemical

[1] = IC50, binding inhibitory activity between menin and MLL, AlphaLISA, 1 nM menin, 10 nM biotinylated MLL1 peptide
[2] = cell free IC50 (nM), 1 nM menin, 10 nM biotinylated MLL1 peptide, AlphaLISA

Description: Then, the fluorescence signal by AlphaLISA (registered trademark, PerkinElmer Co., Ltd.) was measured using a plate reader (PerkinElmer Co., Ltd., EnVisionXcite).

| Compound | IC50 [1] | IC50 [2] | further results |
| --- | --- | --- | --- |
| CNc1nc(N(C)[C@H]2C[C@@H](NCc3ccc(-c4cc(F)c(F)c(OC)c4)cc3)C[C@H]2O)c2cc(CC(F)(F)F)sc2n1 [Example 82, (1R,2S,4R)-4-{[(3′,4′-difluoro-5′-methoxy[1,1′-biphenyl]-4-yl)methyl]amino}-2-{methyl[2-(methylamino)-6-(2,2,2-trifluoroethyl)thieno[2,3-d]pyrimidin-4-yl]amino}cyclopentan-1-ol hydrochloride] | 22.8 nM | – | – |
| CN(c1ncnc2sc(CC(F)(F)F)cc12)[C@@H]1CC[C@H](NCc2ccc(NCc3ccccc3)cc2)C1 [Example 7, (1R,3S)—N^3-{[4-(benzylamino)phenyl]methyl}-N^1-methyl-N^1-[6-(2,2,2-trifluoroethyl)thieno[2,3-d]pyrimidin-4-yl]cyclopentane-1,3-diamine Hydrochloride] | – | 151 nM | – |
| CN(c1ncnc2sc(CC(F)(F)F)cc12)[C@@H]1CC[C@H](NCc2ccc(S(=O)(=O)N3CCCCCC3)cc2)C1 [Example 59, (1R,3S)-N^3-{[4-(azepane-1-sulfonyl)phenyl]methyl)-N^1methyl-N^1-[6-(2,2,2-trifluoroethyl)thieno[2,3-d]pyrimidin-4-yl]cyclopentane-1,3-diamine hydrochloride] | – | 33 nM | – |
| COc1cc(-c2ccc(CN[C@H]3C[C@@H](O)[C@@H](N(C)c4ncncc4Oc4ccc(F)cc4-c4ccccc4C(C)C)C3)cc2)nnc1OC [Example 101, (1R,2S,4R)-4-({[4-(5,6-dimethoxypyridazin-3-yl)phenyl]methyl}amino)-2-[(5-{[5-fluoro-2′-(propan-2-yl)[1,1′-biphenyl]-2-yl]oxy}pyrimidin-4-yl)(methyl)amino]cyclopentan-1-ol hydrochloride] | 2.7 nM | – | – |
| COc1cc(-c2ccc(CN[C@H]3C[C@@H](O)[C@@H](N(C)c4ncnc5sc(CC(F)(F)F)cc45)C3)c(F)c2)cnc1OC [Example 76, (1R,2S,4R)-4-({[4-(5,6-dimethoxypyridin-3-yl)-2-fluorophenyl]methyl}amino)-2-{methyl[6-(2,2,2-trifluoroethyl)thieno[2,3-d]pyrimidin-4-yl]amino}cyclopentan-1-ol hydrochloride] | 8.6 nM | – | – |
| COc1cncc(-c2ccc(CN[C@@H]3C[C@H](N(C)c4ncnc5sc(CC(F)(F)F)cc45)C[C@H]3O)cc2)c1 [Example 50, (1R,2R,4S)-2-({[4-(5-methoxypyridin-3-yl)phenyl]methyl}amino)-4-{methyl[6-(2,2,2-trifluoroethyl)thieno[2,3-d]pyrimidin-4-yl]amino}cyclopentan-1-ol hydrochloride] | – | – | IC50: 9.7 nM |
| OCCN(c1ncnc2sc(CC(F)(F)F)cc12)[C@@H]1CC[C@H](NCc2ccc(-c3cccnc3)cc2)C1 [Example 42, 2-{[(1R,3S)-3-({[4-(pyridin-3-yl)phenyl]methyl}amino)cyclopentyl][6-(2,2,2-trifluoroethyl)thieno[2,3-d]pyrimidin-4-yl[amino}ethan-1-ol hydrochloride] | – | 105 nM | – |
| COc1cncc(-c2ccc(CN[C@@H]3C[C@H](Nc4ncnc5sc(CC(F)(F)F)cc45)CC(F)(F)C3)cc2)c1 [Example 52, (1R,3S)-5,5-difluoro-N^1-{[4-(5-methoxypyridin-3-yl)phenyl]methyl}-N^3-[6-(2,2,2-trifluoroethyl)thieno[2,3-d]pyrimidin-4-yl]cyclohexane-l,3-diamine hydrochloride] | – | 612 nM | – |
| COc1cncc(-c2ccc(CN[C@@H]3C[C@H](Nc4ncnc5sc(CC(F)(F)F)cc45)C[C@H](C(=O)N(C)C)C3)cc2)c1 (single isomer, unassigned) [Example 17B, Hydrochloride] | – | 13.3 nM | – |
| CN(c1ncnc2sc(CC(F)(F)F)cc12)[C@H]1C[C@@H](NCc2ccc(-c3cnc(Cl)c4cc[nH]c34)cc2)C[C@H]1O [Example 70, (1R,2S,4R)-4-({[4-(4-chloro-1H-pyrrolo[3,2-c]pyridin-7-yl)phenyl]methyl}amino)-2-{methyl[6-(2,2,2-trifluoroethyl)thieno[2,3-d]pyrimidin-4-yl]amino}cyclopentan-1-ol hydrochloride] | 3.8 nM | – | – |
| C=CC(=O)NCCCNC(=O)c1ccc(CN[C@H]2CC[C@@H](N(C)c3ncnc4sc(CC(F)(F)F)cc34)C2)cc1 [Example 6, 4-({[(1S,3R)-3-{methyl[6-(2,2,2-trifluoroethyl)thieno[2,3-d]pyrimidin-4-yl]amino}cyclopentyl]amino}methyl)-N-{3-[(prop-2-enoyl)amino]propyl}benzamide Hydrochloride] | – | 81.9 nM | – |
| CNc1nc(N(C)[C@H]2C[C@@H](NCc3ccc(Nc4cccnc4)cc3)C[C@@H]2O)c2cc(CC(F)(F)F)sc2n1 [Example 54, (1S,2S,4R)-2-{methyl[2-(methylamino)-6-(2,2,2-trifluoroethyl)thieno[2,3-d]pyrimidin-4-yl]amino}-4-[({4-[(pyridin-3-yl)amino]phenyl}methyl)amino]cyclopentan-1-ol hydrochloride] | – | 1 nM | – |
| COc1nc(N(C)[C@H]2C[C@@H](NCC3CCN(c4cc(OC)c(OC)nn4)CC3)C[C@H]2O)c2cc(CC(F)(F)F)sc2n1 [Example 115, (1R,2S,4R)-4-({[1-(5,6-dimethoxypyridazin-3-yl)piperidin-4-yl]methyl}amino)-2-{[2-methoxy-6-(2,2,2-trifluoroethyl)thieno[2,3-d]pyrimidin-4-yl](methyl)amino}cyclopentan-1-ol hydrochloride] | 10.9 nM | – | – |
| COc1cncc(-c2ccc(CN[C@H]3C[C@@H](O)[C@@H](N(C)c4ncnc5sc(CC(F)(F)F)cc45)C3)cc2)c1 [Example 129, (1R,2S,4R)-4-({[4-(5-methoxypyridin-3-yl)phenyl]methyl}amino)-2-{methyl[6-(2,2,2-trifluoroethyl)thieno[2,3-d]pyrimidin-4-yl]amino}cyclopentan-1-ol Hydrochloride] | 5.5 nM | – | – |
| FC(F)(F)Cc1cc2c(N[C@@H]3CCC[C@H](NCc4ccc(Oc5ccccc5)cc4)C3)ncnc2s1 [Example 41, (1S,3R)-N^1-[(4-phenoxyphenyl)methyl]-N^3-[6-(2,2,2-trifluoroethyl)thieno[2,3-d]pyrimidin-4-yl]cyclohexane-1,3-diamine hydrochloride] | – | 472 nM | – |
| CNc1ncc(-c2ccc(CN[C@H]3C[C@@H](O)[C@@H](N(C)c4ncnc5sc(CC(F)(F)F)cc45)C3)cc2)cc1OC [Example 92, (1R,2S,4R)-4-[({4-[5-methoxy-6-(methylamino)pyridin-3-yl]phenyl}methyl)amino]-2-{methyl[6-(2,2,2-trifluoroethyl)thieno[2,3-d]pyrimidin-4-yl]amino}cyclopentan-1-ol hydrochloride] | 1.5 nM | – | – |
| COc1nc(N(C)[C@H]2C[C@@H](NCc3ccc(-c4nn(C(F)F)c(=O)cc4OC)cc3)C[C@H]2O)c2cc(CC(F)(F)F)sc2n1 [Example 111, 2-(difluoromethyl)-6-[4-({[(1R,3R,4S)-3-hydroxy-4-{[2-methoxy-6-(2,2,2-trifluoroethyl)thieno[2,3-d]pyrimidin-4-yl](methyl)amino}cyclopentyl]amino}methyl)phenyl]-5-methoxypyridazin-3(2H)-one hydrochloride] | 42.3 nM | – | – |
| CNc1nc(N(C)[C@H]2C[C@@H](NCc3ccc(-c4cncc5c4ccn5S(C)(=O)=O)cc3)C[C@H]2O)c2cc(CC(F)(F)F)sc2n1 [Example 64, (1R,2S,4R)-4[({4-[1-(methanesulfonyl)-1H-pyrrolo[2,3-c]pyridin-4yl]phenyl}methyl)amino]-2-{methyl[2-(methylamino)-6-(2,2,2trifluoroethyl)thieno[2,3-d]pyrimidin-4-yl]amino}cyclopentan-1-ol hydrochloride] | 2.2 nM | – | – |
